The values below come from PMC8673480 (Journal of medicinal chemistry, 2021).

The target in this experiment is SARS-CoV-2 3CLpro (Severe acute respiratory syndrome coronavirus 2, UniProt P0DTD1). Put plainly: cell-based.

What is called EC50 is the midpoint of the concentration-response curve. A low value points to higher potency in that assay. Turning to `CCCC1CCC(COC(=O)NC(CC(C)C)C(=O)NC(C=O)CC2CCNC2=O)CC1` [Compound 8b, ((1r,4R)-4-Propylcyclohexyl) methyl ((2S)-4-methyl-1-oxo-1-(((2S)-1-oxo-3-(2-oxopyrrolidin-3-yl)propan-2-yl)amino)pentan-2-yl) carbamate], it took 1030 ± 490 nM to reach a half-maximal effect (EC50).
